Tests used:
[1] = Sensory panel evaluation of tomato soups with reduced salt (Example 9)
Experimental: 10 gram of each composition was mixed with 100 ml hot water to obtain tomato soups. The different soups were tasted and evaluated by a sensory panel.

[2] = Professional panel tasting of 0% fat strawberry yoghurt (Example 4)
Experimental: Four yoghurt samples were prepared: • A: Yoghurt 0% fat+strawberry flavour+sucralose (25%) 300 ppm • B: Yoghurt 0% fat+strawberry flavour+sucralose (25%) 300 ppm+10 ppm N-gluconyl ethanolamme (as prepared in Example 2) • C: Yoghurt 0% fat+strawberry flavour+4% sugar • D: Yoghurt 0% fat+strawberry flavour+4% sugar+10 ppm N-gluconyl ethanolamine (as prepared in Example 2)
(§1) The yoghurts were tasted by a professional panel.

[3] = Professional panel tasting of 3% fat strawberry yoghurt (Example 5); details: sample B: Yoghurt 3% fat+strawberry flavour+4% sugar+10 ppm; reference A without: tart, acidic
Experimental: Two yoghurt samples were prepared: • A: Yoghurt 3% fat+strawberry flavour+4% sugar • B: Yoghurt 3% fat+strawberry flavour+4% sugar+10 ppm N-gluconyl ethanolamine (as prepared in Example 2)
as §1

[4] = Professional panel tasting of strawberry ice cream, 8% vegetable fat (Example 6); details: sample B: Ice cream (8% vegetable fat)+strawberry flavour+10 ppm, reference A without: sweet, creamy aftertaste
Experimental: Two ice cream (8% vegetable fat) samples were prepared: • A: Ice cream+strawberry flavour • B: Ice cream+strawberry flavour+10 ppm N-gluconyl ethanolamine (as prepared in Example 2)
The ice creams were tasted by a professional panel. There was general agreement among the group on the taste descriptions: • A: sweet, strawberry, creamy aftertaste.

[5] = Professional panel tasting of still lemon beverages (Example 7); details: sample C: tap water with sucrose (6.2 brix)+lemon flavour+30 ppm; B (6.2 brix, without): empty, less sweet; A (7 brix): sweet
Experimental: Three still beverages were prepared: • A: Tap water with sucrose (7 brix) and 1.5 g/l of citric acid+lemon flavour • B: Tap water with sucrose (6.2 brix) and 1.5 g/l of citric acid+lemon flavour • C: Tap water with sucrose (6.2 brix)+lemon flavour+N-gluconyl ethanolamine 30 ppm (as prepared in Example 2)
The beverages were tasted by a professional panel.

[6] = Professional panel tasting of standard chicken soup (Example 8); details: 7 ppm, versus soup without
Experimental: A standard chicken soup was prepared. The quantity was split in two and to one half 7 ppm of N-gluconyl ethanolamine, as prepared in example 2, was added. The soups were tasted by a professional panel.

[7] = Professional panel tasting of sweet strawberry milk samples of different fat content (Example 10); details: for taste description versus same milk without the substance: 6% sucrose, strawberry flavour, 10 ppm
Experimental: Six sweet milk samples, containing 6% sucrose, flavoured with a strawberry flavour were prepared:
1. Zero fat containing milk drink
2. Zero fat containing milk drink+10 ppm gluconyl ethanolamine (as prepared in example 2)
4. 1.5% fat milk+10 ppm gluconyl ethanolamine (as prepared in example 2)
6. Full fat milk+10 ppm gluconyl ethanolamine (as prepared in example 2)
(§2) All samples were tasted by a professional panel. There was general agreement about the differences in taste between the samples.

[8] = Professional panel tasting of instant vegetable soup of different fat content (Example 11)
Experimental: Four samples of standard instant vegetable soup were prepared:
1. Soup containing 2% fat
2. Soup containing 2% fat+7 ppm gluconyl ethanolamine (as prepared in example 2)
3. Soup containing 4% fat
4. Soup containing 4% fat+7 ppm gluconyl ethanolamine (as prepared in example 2)
5. Soup containing 6% fat
6. Soup containing 6% fat+7 ppm gluconyl ethanolamine (as prepared in example 2)
as §2

[9] = Professional panel evaluation of cigarettes with tobacco casings (Example 12); details: casing B (2 g per 100 g casing mixture, 1 g/kg tobacco) versus casing A without
Experimental: The following mixtures were used as casings to improve the tobacco taste and improvement of the body of the smoke:
dosage of this mixture is 1 g/kg tobacco
Cigarettes were prepared from both types of tobacco, which were evaluated by a professional panel.

[10] = Professional panel tasting of salted potato chips (Example 13); details: potato chips with salt (0.7%) and 100 ppm; reference chips: salty, slightly rancid, oily-greasy and cardboard-like
Text: One sample of potato chips was seasoned with salt (0.7%).
Another sample of potato chips was seasoned with salt (0.7%) and flavoured with 100 ppm
N-gluconyl ethanolamine (as prepared in example 2).
The chips were tasted by a professional panel.
The reference chips were described as salty, slightly rancid, oily-greasy and cardboard-like.

[11] = Professional panel tasting of ketchup (Example 14); details: ketchup pH 3.5, 20 ppm; base: strongly acidic, acetic acid-like, flat tomato profile
Experimental: Ketchup was prepared using 506 g of water, 150 g of tomato puree (28-30 Brix), 30 g of modified starch (Colflo 67 ex National Starch), 22 g of salt, 2 g of stabilizer Deltagel CE 1364) and 115 g of vinegar (12% acetic acid in water), by first mixing the dry ingredients, subsequently adding water and stirring until a homogeneous paste was obtained. Tomato puree and vinegar were than added and the mixture was stirred again and heated to a temperature of 95° C. for 1 minute. The mixture was filled off hot and allowed to cool down.
The pH was determined to be 3.5.
Part of the ketchup was mixed with 20 ppm N-gluconyl ethanolamine (as prepared in example 2).
The two ketchups were tasted and compared by a professional panel.
The ketchup base was described as strongly acidic, acetic acid-like, with a flat tomato profile.

[12] = Professional panel tasting of vinaigrette (Example 15); details: 30 ppm, original: strongly acidic, acetic acid-like, thin, peaky
Experimental: A vinaigrette was prepared using 815.8 g of water, 100 g of sunflower oil, 12 g of salt, 30 g of sugar, 45 g of vinegar (12% acetic acid), 4 g of xanthan gum and 0.2 g of turmeric powder by mixing all ingredients intensively to obtain a homogeneous emulsion.
To a part of the vinaigrette 30 ppm of N-gluconyl ethanolamine (as prepared in example 2) was added.
Both vinaigrettes were tasted by a professional panel.
The original vinaigrette was described as strongly acidic, acetic acid-like, thin, peaky.

With `O=C(NCCOP(=O)(O)O)[C@H](O)[C@@H](O)[C@H](O)[C@H](O)CO` [N-gluconyl ethanolamine phosphate] the perceived saltiness ([1]; product C (3.5 g salt, 3.5 g Example 3 product per 100 g) versus product A (control, 7 g salt)) was “comparable to that of product A”, the panel preference ([1]; product C: tomato soup powder, 50% reduced salt, 3.5 g of Example 3 product per 100 g, 10 g in 100 ml hot water, versus product B (maltodextrin instead)) was “clearly preferred over product B” and the taste description ([1]; product C: tomato soup, 50% reduced salt, 3.5 g Example 3 product per 100 g powder) was ““more taste”, “more impact”, “more umami”, “more kokumi” and “salivating””.
With `O=C(NCCO)[C@H](O)[C@@H](O)[C@H](O)[C@H](O)CO` [N-gluconyl ethanolamine] the taste description ([2]; sample B: Yoghurt 0% fat+strawberry flavour+sucralose (25%) 300 ppm+10 ppm, reference A without: sweet, bitter, metallic, aftertaste) was “fuller more round and natural taste, more sugar sweetness, significantly less bitter metallic aftertaste”, the taste description ([2]; sample D: Yoghurt 0% fat+strawberry flavour+4% sugar+10 ppm, reference C without: tart, acidic) was “fuller more round and natural taste, more intense sweet” and the taste description [3] was “much fuller, more fatty, more round and natural taste, more intense sweet”. The taste description [4] was “fuller, more round and natural taste, enhanced sweetness and creaminess”, the taste description [5] was “fuller, more round and natural taste, more intense sweet taste than B” and the taste description [6] was “more tasteful, more complete, more body, more fatty”. The “taste comparison with higher-fat milk without the substance” value ([7]; sample 2 (zero fat+10 ppm) versus sample 3 (1.5% fat milk)) was “quite similar and the main difference was that sample 2 and 4 were slightly more sweet”, the “taste description versus same milk without the substance” value ([7]; sample 2: zero fat milk drink, versus sample 1) was “fuller, more round natural taste, more creamy and more sweet” and the “taste comparison with higher-fat milk without the substance” value ([7]; sample 4 (1.5% fat+10 ppm) versus sample 5 (full fat milk)) was “quite similar and the main difference was that sample 2 and 4 were slightly more sweet”. The “taste description versus same milk without the substance” value ([7]; sample 4: 1.5% fat milk, versus sample 3) was “fuller, more round natural taste, more creamy and more sweet”, the “taste description versus same milk without the substance” value ([7]; sample 6: full fat milk, versus sample 5) was “fuller, more round natural taste, more creamy and more sweet” and the “taste comparison with higher-fat soup without the substance” value ([8]; sample 2 (2% fat+7 ppm) versus sample 3 (4% fat)) was “quite similar and the main difference was that sample 2 and 4 tasted slightly more sweet”. For the same molecule, the “taste description versus same soup without the substance” value ([8]; sample 2: vegetable soup 2% fat+7 ppm, versus sample 1) was “more fatty, more natural, more round and more sweet”, the “taste comparison with higher-fat soup without the substance” value ([8]; sample 4 (4% fat+7 ppm) versus sample 5 (6% fat)) was “quite similar and the main difference was that sample 2 and 4 tasted slightly more sweet” and the “taste description versus same soup without the substance” value ([8]; sample 4: vegetable soup 4% fat+7 ppm, versus sample 3) was “more fatty, more natural, more round and more sweet”. For the same molecule, the “taste description versus same soup without the substance” value ([8]; sample 6: vegetable soup 6% fat+7 ppm, versus sample 5) was “more fatty, more natural, more round and more sweet”, the “smoke evaluation of cigarettes” value [9] was “significantly more “body” in the smoke and significantly more “expanding” tobacco smoke” and the taste description [10] was “salty, exhibiting more fatty fullness, and masking of undesired notes of the reference chips”. For the same molecule, the taste description [11] was “mildly acidic, less acetic acid-like, exhibiting more sun-ripened tomato character, more fullness” and the taste description [12] was “acidic, more rounded, more full, more fat impression, more smooth”.
